Source: patent US12559574B2 (National Health Research Institutes, priority 2019, dated 2026)
Like-named read-outs stand apart in the source and are kept apart here.

How the values were obtained:
LLC cells = experiment: transwell migration and Matrigel invasion, LLC; type: cell-based, murine; conditions: 24 h; for succinate-induced LLC migration: succinate with test agent
Protocol: (§1) Transwell migration and invasion assays are performed. Relative ability of migration or invasion is calculated from 3 fields under a light microscope. […] Migration assays and Matrigel invasion assay are then performed with PDGF-BB as a chemoattractant and migrated cell counts expressed as fold of basal controls.
(§2) LLC and A549 lung cancer cells are treated with different concentrations of HIF-1α specific inhibitors, and cell migration is assessed in a transwell assay. […] Prolyl hydroxylase (PHD) controls HIF-1α protein stability by hydroxylation of two conserved proline residues in HIF-1α thereby accelerating its degradation. […] Cell lysates are immunoblotted with antibodies specific for E-cadherin, Vimentin, or […]-actin.

A549 = experiment: transwell migration and Matrigel invasion, A549; type: cell-based, human; conditions: 24 h; for succinate-induced A549 migration: succinate with test agent
Protocol: as §1
(§3) The cells are lysed, and the cell lysates are immunoblotted with antibodies specific for E-cadherin, N-cadherin, vimentin, or β-actin.
as §2

A549 cells = experiment: EMT marker immunoblot in A549 cells; type: cell-based, human
Protocol: as §3, §2

HIF-1α [1] = experiment: kinase phosphorylation and HIF-1α expression in A549 cells; type: cell-based, human; conditions: for HIF-1α expression: A549/shNC cells, succinate 1 mM or DMS 20 mM, 12 h, qPCR
Protocol: MAPK-, phosphatidylinositol 3-kinase (PI3K)-AKT-mTOR-, and AMP-activated protein kinase (AMPK)-mediated hypoxia-inducible factor-1α (HIF-1α) upregulation plays critical roles in macrophage activation and cancer progression. Therefore, it is investigated that whether these signaling molecules mediate the succinate actions. […] Using selective kinase inhibitors, LLC cells are treated with different concentrations of LY294002 or SB202190 for 12 h, and Hif-1α mRNA is measured. […] To understand the role of SUCNR1 in driving HIF-1α expression, the expression level of HIF-1α in A549/shSUCNR1 is determined.

LLC [2] = conditions: succinate 20 and 100 mg/kg i.p. twice a week for 3 weeks vs saline
Protocol: (§4) On day 21, primary subcutaneous tumors are harvested, and percentage of TAMs is analyzed.

[3] = system: mouse peritoneal macrophages
Protocol: as §4

peritoneal macrophages [4] = experiment: peritoneal macrophage transwell migration (A549-CM, succinate, anti-SUCNR1); type: cell-based, mouse; conditions: succinate vs control
Protocol: The peritoneal macrophages are seeded on the upper chamber of transwell plates and cultured with control medium (DMEM) or CM from A549 (A549-CM) for 24 h. […] As shown in FIGS. 18A and 18B, A549-CM and A549-SCM increase macrophage migration compared with the control medium, which is abrogated by anti-SUCNR1 antibody but not control IgG.

HT-29 = experiment: transwell migration and Matrigel invasion, HT-29; type: cell-based, human; conditions: HT-29, different concentrations of succinate, 24 h
Protocol: (§5) Transwell migration and invasion assays are performed.
(§6) Succinate-induced migration of LLC, A549, PC3 and HT-29 cells is blocked by anti-SUCNR1 antibody but not control IgG antibody (FIG. 23A).

MCF-7 = conditions: MCF-7, different concentrations of succinate, 24 h
Protocol: as §1

PC3 = experiment: transwell migration and Matrigel invasion, PC3; type: cell-based, human; conditions: PC3, different concentrations of succinate, 24 h
Protocol: as §5, §6

LLC [5] = system: LLC
From the text: The subcutaneous primary tumors are surgically removed after 3 weeks and mice are kept for another 2 weeks at which time animals are sacrificed.

HIF-1α [6] = experiment: kinase phosphorylation and HIF-1α expression in LLC cells; type: cell-based, murine; conditions: succinate 1 mM
SUCNR1 [7] = conditions: A549, succinate 1 mM
SUCNR1 [8] = conditions: succinate 1 mM, 2 h
PMϕs = experiment: VCAM1+CD11c+CD11b low-TAM population in succinate-stimulated PMϕs, flow cytometry; type: cell-based, mouse; conditions: pre-treated 1 h, succinate 1 mM 3 days
Protocol: (§7) VCAM1^+CD11c^+CD11b^low-TAM population is quantified by flow cytometry and normalized to the cell number of control medium treatment. […] The LLC cells are subcutaneously injected into C57BL/6J mice. The mice with an average 50 mm^3 subcutaneous tumors (8 day after LLC tumor inoculation) receive intraperitoneal injections of 6G10F6 monoclonal antibody (1 and 5 mg/kg) or IgG control antibody (5 mg/kg), twice a week for 5 weeks. The subcutaneous tumors are surgically removed 3 weeks after LLC injection for the assessment of TAM polarization; the lung, liver, spleen, and adrenal gland are excised from mice 2 weeks after removal of the primary tumor for the determination of tumor metastasis.

peritoneal macrophages [9] = experiment: succinate-induced peritoneal macrophage migration with anti-succinate antibodies, transwell; type: cell-based, mouse; conditions: succinate 1 mM, 24 h
Protocol: as §7

LLC [10] = experiment: syngeneic murine LLC tumor model treated with 6G10F6 monoclonal antibody
Protocol: as §7

[11] = succinate 20 and 100 mg/kg i.p. twice a week vs saline

With `COc1cc2c(cc1O)CC[C@@H]1[C@@H]2CC[C@]2(C)[C@@H](O)CC[C@@H]12` [2-MeOE2] the “succinate-induced LLC migration” value (LLC cells) was “inhibit succinate-mediated migration of LLC and A549 in a dose-dependent manner” and the “succinate-induced A549 migration” value (A549) was “inhibit succinate-mediated migration of LLC and A549 in a dose-dependent manner”.

For `Cc1cc(-c2nc(-c3ccc(OC(F)(F)F)cc3)no2)nn1Cc1ccnc(N2CCN(C3CC3)CC2)c1` [Bay 87-2243], the “succinate-induced LLC migration” value (LLC cells) was “inhibit succinate-mediated migration of LLC and A549 in a dose-dependent manner”, the “succinate-induced A549 migration” value (A549) was “inhibit succinate-mediated migration of LLC and A549 in a dose-dependent manner” and the “succinate-mediated vimentin augmentation and E-cadherin reduction” value (A549 cells; pretreated 1 h, succinate 1 mM 24 h) was “suppresses”.

For `COC(=O)CNC(=O)C(=O)OC` [DMOG, dimethyloxalyl glycine], the “succinate-induced A549 migration” value (A549) was “increases”.

For `COC(=O)CCC(=O)OC` [DMS, dimethyl-ester succinate, reference compound], the HIF-1α expression (HIF-1α [1]) was “results in elevation of HIF-1α”.

`CN(C)C(=N)N=C(N)N` [metformin] was tested, and the “succinate-induced A549 migration” value (A549) was “abolish”.

`O=C(O)CCC(=O)O` [succinate] was tested, and the “VCAM1+CD11c+CD11b low-TAMs in primary subcutaneous tumors” value (LLC [2]) was “significantly higher number”, the ARG1 protein expression ([3]; different concentrations of succinate, 24 h) was “increases the expression of ARG1 protein in mouse peritoneal macrophages in a concentration-dependent manner” and the “TAM marker gene expression (Arg1, Fizz1, Mgl1, Mgl2 mRNA)” value ([3]; qPCR, 24 h) was “raises the expression of TAM marker gene”. The “TAM surface markers CD11c and VCAM1” value ([3]; succinate 1 mM, 3 days, flow cytometry) was “up-regulates TAM surface markers”, the macrophage migration (peritoneal macrophages [4]) was “dramatically increase macrophage migration” and the “cell migration and invasion” value (LLC cells; LLC, different concentrations of succinate) was “promotes cell migration and invasion”. The “cell migration and invasion” value (A549; A549, different concentrations of succinate) was “promotes cell migration and invasion”, the “cell migration and invasion” value (HT-29) was “promotes cell migration and invasion” and the “cell migration and invasion” value (MCF-7) was “promotes cell migration and invasion”. The “cell migration and invasion” value (PC3) was “promotes cell migration and invasion”, the “E-cadherin, N-cadherin and vimentin levels” value (A549 cells; succinate 0.5, 1, 2.5 mM 24 h, 1 mM time course) was “suppresses E-cadherin and increased N-cadherin and vimentin in a concentration and time-dependent manner” and the “metastatic cancer nodules in liver and spleen” value (LLC [5]; [11]) was “similarly higher”. For the same molecule, the “metastatic cancer nodules in lungs” value (LLC [5]; [11]) was “higher in mice receiving succinate (in a dose-dependent manner) than in mice receiving saline”, the “incidence of adrenal metastasis” value (LLC [5]; succinate-treated vs saline, p=0.088) was “higher in succinate-treated animal, but the difference does not reach statistical significance” and the “HIF-1α protein and mRNA expression” value (HIF-1α [6]) was “increases HIF-1α protein”. The “phosphorylation of p38 MAPK, AKT, and AMPK” value (HIF-1α [6]) was “induces phosphorylation of p38 MAPK, AKT, and AMPK in a time-dependent manner”, the “HIF-1α protein and mRNA expression” value (HIF-1α [1]; A549, succinate 1 mM) was “increases HIF-1α protein” and the “phosphorylation of p38 MAPK, AKT, and AMPK” value (HIF-1α [1]; A549, succinate 1 mM) was “induces phosphorylation of p38 MAPK, AKT, and AMPK in a time-dependent manner”. For the same molecule, the HIF-1α expression (HIF-1α [1]) was “Up-regulation of HIF-1α is observed”, the “phosphorylated ERK1/2” value (SUCNR1 [7]) was “rapid rise of phosphorylated ERK1/2 at 2 min” and the “intracellular Ca2+” value (SUCNR1 [7]; 2 h) was “increased”. The “PGE2 released into the medium” value (SUCNR1 [8]; LLC stably transfected with control shRNA) was “increased” and the “intracellular Ca2+” value (SUCNR1 [8]; LLC) was “increased”.

`O=C(O)CCC(=O)C(=O)O` [α-KG, α-ketoglutarate] was tested, and the “succinate-induced A549 migration” value (A549) was “reduces”.

B1: 6G10F6: mouse monoclonal anti-succinate antibody, heavy chain SEQ ID NO: 2, light chain SEQ ID NO: 4 (antibody, V domains shown)
VH: MRVLILLWLFTAFPGILSDVQLQESGPGLVKPSQSLSLTCTVTGYSITSDYAWNWFRQFPGNKLEWMGYTSYSGSTSYNPSLKSRISITRNTSKNQIFLQLNSVTPEDTATYYCAREVTTFGYFDYWGQGTTLTVSS
VL: MAWTSLILSLLALCSGASSQAVVTQESALTTSPGGTVILTCRSSTGAVTTSNYANWVQEKPDHLFTGLIGGTSNRAPGVPVRFSGSLIGDKAALTITGAQTEDDAMYFCALWYSTHYVLGGGTKVTVL
modifications: Heavy chain of 6G10F6 Antibody; Light chain of 6G10F6 antibody
With B1 the “succinate up-regulated TAM surface markers CD11c and VCAM1” value (PMϕs) was “suppresses”, the succinate-induced macrophage migration (peritoneal macrophages [9]) was “suppresses” and the “survival of LLC tumor-bearing mice” value (LLC [10]; 1 and 5 mg/kg i.p.) was “significantly prolongs the survival”. The lung tumor multiplicities (LLC [10]; 1 and 5 mg/kg i.p. twice a week for 5 weeks, vs saline) was “significantly suppresses” and the “TAM population in subcutaneous tumors” value (LLC [10]; 1 and 5 mg/kg i.p. twice a week, vs saline) was “significantly suppresses”.
